US9902702B2, “Spirocycloheptanes as inhibitors of rock” (BRISTOL-MYERS SQUIBB COMPANY, priority 2014, dated 2018)

molecular target: ROCK2 (Homo sapiens, UniProt O75116); test: ROCK assay: phosphorylation of FITC peptide substrate, LABCHIP 3000 mobility shift; assay type: biochemical; details: 5 μM ATP, 1.5 μM peptide substrate; read-out: ROCK2 Activity (ROCK IC50 range)
In short: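 IC50 values come from curve-fitting percent kinase inhibition across a compound dilution series. The reaction is started with Rho kinase variant in HEPES pH 7.5 buffer with MgCl2, Brij-35 and DTT, with 5 μM ATP, 1.5 μM FITC-labelled peptide and under 2% DMSO. After EDTA quench, product and substrate are separated by microfluidic mobility shift.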

Sequence of ROCK2 (O75116 whole entry, species assumed): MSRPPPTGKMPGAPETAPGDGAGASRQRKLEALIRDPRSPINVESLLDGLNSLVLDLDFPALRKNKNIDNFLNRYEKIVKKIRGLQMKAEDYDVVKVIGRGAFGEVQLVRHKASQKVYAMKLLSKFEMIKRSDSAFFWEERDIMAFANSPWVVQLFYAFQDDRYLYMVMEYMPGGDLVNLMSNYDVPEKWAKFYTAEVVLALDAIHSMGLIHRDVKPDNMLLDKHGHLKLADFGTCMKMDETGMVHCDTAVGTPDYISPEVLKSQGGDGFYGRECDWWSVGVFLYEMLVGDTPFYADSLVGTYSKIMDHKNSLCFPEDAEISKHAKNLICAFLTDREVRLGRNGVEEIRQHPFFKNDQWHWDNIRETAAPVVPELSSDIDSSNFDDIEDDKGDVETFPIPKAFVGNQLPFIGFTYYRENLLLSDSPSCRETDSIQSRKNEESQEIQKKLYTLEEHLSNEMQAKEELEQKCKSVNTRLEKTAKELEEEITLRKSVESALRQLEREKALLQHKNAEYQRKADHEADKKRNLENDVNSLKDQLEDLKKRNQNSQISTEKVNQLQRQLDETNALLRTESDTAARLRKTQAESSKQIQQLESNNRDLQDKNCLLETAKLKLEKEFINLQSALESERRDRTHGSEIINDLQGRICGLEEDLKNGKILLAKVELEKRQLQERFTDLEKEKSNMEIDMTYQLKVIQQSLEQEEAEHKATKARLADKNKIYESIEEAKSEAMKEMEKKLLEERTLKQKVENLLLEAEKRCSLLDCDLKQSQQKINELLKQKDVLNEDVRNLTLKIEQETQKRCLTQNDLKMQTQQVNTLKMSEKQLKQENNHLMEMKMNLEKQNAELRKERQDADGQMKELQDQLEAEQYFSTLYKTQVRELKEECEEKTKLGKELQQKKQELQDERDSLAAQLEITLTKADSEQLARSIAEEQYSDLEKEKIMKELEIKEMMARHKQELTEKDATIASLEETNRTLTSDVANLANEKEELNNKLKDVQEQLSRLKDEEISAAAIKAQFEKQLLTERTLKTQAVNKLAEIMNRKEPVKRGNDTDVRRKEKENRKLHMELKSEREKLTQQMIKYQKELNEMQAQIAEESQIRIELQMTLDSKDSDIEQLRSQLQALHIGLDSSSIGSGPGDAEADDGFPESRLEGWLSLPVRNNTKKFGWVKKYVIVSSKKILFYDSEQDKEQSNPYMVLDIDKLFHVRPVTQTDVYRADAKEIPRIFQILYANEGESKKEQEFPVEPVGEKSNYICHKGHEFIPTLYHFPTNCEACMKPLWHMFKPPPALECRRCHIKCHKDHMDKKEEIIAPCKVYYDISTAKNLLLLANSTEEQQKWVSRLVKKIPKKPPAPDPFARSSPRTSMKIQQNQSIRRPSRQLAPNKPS

Row | Compound | IC50
1 | [H][C@]1(c2n[nH]c(=O)c3ccccc32)C[C@]2(C[C@@H](NC(=O)c3cnc4c(Cl)c(C)ccn34)C2)C1 (stereo partly drawn) [Example 386, 8-chloro-7-methyl-N-((aR)-6-(4-oxo-3,4-dihydro-phthalazin-1-yl)spiro[3.3]heptan-2-yl)imidazo[1,2-a]pyridine-3-carboxamide] | 2.01 to 5 nM
2 | CC1(C)CN(C(=O)NC2CC3(C2)CC(c2n[nH]c(=O)c4ccccc24)C3)c2ccccc21 (stereo not shown) [Example 255] | 5.1 to 15 nM
3 | CC(C)(C)n1cc(-c2ccc3c(c2)CCN3C(=O)NC2CC3(C2)CC(c2n[nH]c(=O)c4ccccc24)C3)cn1 [Example 242, 5-(1-(tert-butyl)-1H-pyrazol-4-yl)-N-((aR)-6-(4-oxo-3,4-dihydrophthalazin-1-yl)spiro[3.3]heptan-2-yl)indoline-1-carboxamide] | 2.01 to 5 nM
4 | [H][C@]1(c2n[nH]c(=O)c3ccccc32)C[C@]2(C[C@@H](NC(=O)c3cc4ccc(OC)cc4n3C)C2)C1 (stereo partly drawn) [Example 314, 6-methoxy-1-methyl-N-((aR)-6-(4-oxo-3,4-dihydrophthalazin-1-yl)spiro[3.3]heptan-2-yl)-1H-indole-2-carboxamide] | 5.1 to 15 nM
5 | [H][C@]1(c2n[nH]c(=O)c3ccccc32)C[C@]2(C[C@@H](NC(=O)c3cccc(-c4nc(C)cs4)c3)C2)C1 (stereo partly drawn) [Example 340, 3-(4-methylthiazol-2-yl)-N-((aR)-6-(4-oxo-3,4-dihydrophthalazin-1-yl)spiro[3.3]heptan-2-yl)benzamide] | 5.1 to 15 nM
6 | [H][C@]1(c2n[nH]c(=O)c3ccccc32)C[C@]2(C[C@@H](NC(=O)c3ccc(-c4cnn(C(F)F)c4)c(F)c3)C2)C1 (stereo partly drawn) [Example 428, 4-(1-(difluoromethyl)-1H-pyrazol-4-yl)-3-fluoro-N-((aR)-6-(4-oxo-3,4-dihydrophthalazin-1-yl)spiro[3.3]heptan-2-yl)benzamide] | 5.1 to 15 nM
7 | COc1ccc2c(C(=O)NC3CC4(C3)CC(c3n[nH]c(=O)c5ccccc35)C4)cnn2c1 [Example 63, 6-methoxy-N-((aR)-6-(4-oxo-3,4-dihydrophthalazin-1-yl)spiro[3.3]heptan-2-yl)pyrazolo[1,5-a]pyridine-3-carboxamide] | 0.2 to 2 nM
8 | Cc1nn(C)c(C)c1-c1ccc(NC(=O)NC2CC3(C2)CC(c2n[nH]c(=O)c4ccccc24)C3)cc1 [Example 233, 1-((aR)-6-(4-oxo-3,4-dihydrophthalazin-1-yl)spiro[3.3]heptan-2-yl)-3-(4-(1,3,5-trimethyl-1H-pyrazol-4-yl)phenyl)urea] | 5.1 to 15 nM
9 | Cn1cc(-c2cnc(C(=O)N[C@H]3CC4(C3)C[C@H](c3n[nH]c(=O)c5ccccc53)C4)c(F)c2)cn1 (stereo partly drawn) [Example 463, 3-fluoro-5-(1-methyl-1H-pyrazol-4-yl)-N-((aR)-6-(4-oxo-3,4-dihydrophthalazin-1-yl)spiro[3.3]heptan-2-yl)picolinamide] | 15.1 to 100 nM
10 | O=C(NC1CC2(C1)CC(c1n[nH]c(=O)c3ccccc13)C2)c1cnn2cc(OCCOCC(F)(F)F)ccc12 (stereo not drawn) [Example 139, N-((αR)-6-(4-oxo-3,4-dihydrophthalazin-1-yl)spiro[3.3]heptan-2-yl)-6-(2-(2,2,2-trifluoroethoxy)ethoxy)pyrazolo[1,5-α]pyridine-3-carboxamide] | 0.2 to 2 nM
11 | O=C(NC1CC2(C1)CC(c1n[nH]c(=O)c3ccccc13)C2)c1cnn2ccc(OCCO)cc12 [Example 77, 5-(2-hydroxyethoxy)-N-((aR)-6-(4-oxo-3,4-dihydrophthalazin-1-yl)spiro[3.3]heptan-2-yl)pyrazolo[1,5-a]pyridine-3-carboxamide] | 15.1 to 100 nM
12 | Cn1cc(-c2ccc(NC(=O)NC3CC4(C3)CC(c3n[nH]c(=O)c5ccccc35)C4)cc2)c(C(F)(F)F)n1 [Example 232, 1-(4-(1-methyl-3-(trifluoromethyl)-1H-pyrazol-4-yl)phenyl)-3-((aR)-6-(4-oxo-3,4-dihydrophthalazin-1-yl)spiro[3.3]heptan-2-yl)urea] | 5.1 to 15 nM
13 | CC(C)(O)Cn1nc(C(=O)NC2CC3(C2)CC(c2n[nH]c(=O)c4ccccc24)C3)c2ccc(C=Cc3ccccc3)cc21 (stereo not shown) [Example 148, 1-(2-hydroxy-2-methylpropyl)-N-((αR)-6-(4-oxo-3,4-dihydrophthalazin-1-yl)spiro[3.3]heptan-2-yl)-6-((E)-styryl)-1H-indazole-3-carboxamide] | 5.1 to 15 nM

Now from value to compound:

Row | IC50 | Compound
14 | 15.1 to 100 nM | [H][C@]1(c2n[nH]c(=O)c3ccccc32)C[C@]2(C[C@@H](NC(=O)c3cn4ccc(-c5cnc(C)s5)cc4n3)C2)C1 (stereo partly drawn) [Example 454, 7-(2-methylthiazol-5-yl)-N-((aR)-6-(4-oxo-3,4-dihydrophthalazin-1-yl)spiro[3.3]heptan-2-yl)imidazo[1,2-a]pyridine-2-carboxamide]
15 | 0.2 to 2 nM | O=C(NC1CC2(C1)CC(c1n[nH]c(=O)c3ccccc13)C2)c1cnn2cc(OCCN3CCC(F)C3)ccc12 [Example 190, 6-(2-((S)-3-fluoropyrrolidin-1-yl)ethoxy)-N-((aR)-6-(4-oxo-3,4-dihydrophthalazin-1-yl)spiro[3.3]heptan-2-yl)pyrazolo[1,5-a]pyridine-3-carboxamide]
16 | 100 to 2100 nM | O=C(NC1CC2(C1)CC(c1n[nH]c(=O)c3ccccc13)C2)c1cnn2cccnc12 [Example 282, N-((aR)-6-(4-oxo-3,4-dihydrophthalazin-1-yl)spiro[3.3]heptan-2-yl)pyrazolo[1,5-a]pyrimidine-3-carboxamide]
17 | 5.1 to 15 nM | [H][C@]1(c2n[nH]c(=O)c3ccccc32)C[C@@]2(C[C@H](NC(=O)c3cc4cccc(OC)c4[nH]3)C2)C1 (stereo partly drawn) [Example 295, 7-methoxy-N-((aR)-6-(4-oxo-3,4-dihydrophthalazin-1-yl)spiro[3.3]heptan-2-yl)-1H-indole-2-carboxamide]
18 | 2.01 to 5 nM | [H][C@]1(c2n[nH]c(=O)c3ccccc32)C[C@]2(C[C@@H](NC(=O)c3cnc4cc(N(C)CC(C)(C)O)ccn34)C2)C1 (stereo partly drawn) [Example 399, 7-((2-hydroxy-2-methyl-propyl)(methyl)amino)-N-((aR)-6-(4-oxo-3,4-dihydrophthalazin-1-yl)spiro[3.3]heptan-2-yl)imidazo[1,2-a]pyridine-3-carboxamide]
19 | 0.2 to 2 nM | O=C(NC1CC2(C1)CC(c1n[nH]c(=O)c3ccccc13)C2)c1cnn2cc(OC(CF)CF)ccc12 (stereo not drawn) [Example 131, 6-((1,3-difluoropropan-2-yl)oxy)-N-((αR)-6-(4-oxo-3,4-dihydrophthalazin-1-yl)spiro[3.3]heptan-2-yl)pyrazolo[1,5-α]pyridine-3-carboxamide]
20 | 0.2 to 2 nM | [H][C@]1(c2n[nH]c(=O)c3ccccc32)C[C@]2(C[C@@H](NC(=O)c3cnc4cc(OCCN5CCOCC5)ccn34)C2)C1 (stereo partly drawn) [Example 398, 7-(2-morpholinoethoxy)-N-((aR)-6-(4-oxo-3,4-dihydrophthalazin-1-yl)spiro[3.3]heptan-2-yl)imidazo[1,2-a]pyridine-3-carboxamide]
21 | 2.01 to 5 nM | O=C(NC1CC2(C1)CC(c1n[nH]c(=O)c3ccccc13)C2)c1cnn2c(C3CC3)c(O)ccc12 (stereo not drawn) [Example 128, 7-cyclopropyl-6-hydroxy-N-((αR)-6-(4-oxo-3,4-dihydrophthalazin-1-yl)spiro[3.3]heptan-2-yl)pyrazolo[1,5-α]pyridine-3-carboxamide]
22 | 0.2 to 2 nM | O=C(NC1CC2(C1)CC(c1n[nH]c(=O)c3ccccc13)C2)c1cnn2cc(N3CC(F)C3)ccc12 [Example 91, 6-(3-fluoroazetidin-1-yl)-N-((aR)-6-(4-oxo-3,4-dihydrophthalazin-1-yl)spiro[3.3]heptan-2-yl)pyrazolo[1,5-a]pyridine-3-carboxamide]
